Each structure is given as a SMILES string.

The melting point is the temperature, or range, at which the solid turns liquid. The term boiling point denotes the temperature at which the vapour pressure of the liquid equals the pressure above it.

For `O=C(Nc1ccccc1)Nc1ccnc(Cl)c1`, the log10 vapour pressure (mmHg) was -9.46 and the melting point is 167 °C.
`COC(=O)C(C)O` (stereo unspecified) showed a boiling point of 145 °C and a melting point of -66 °C.
`C#CC(C)(C)NC(=O)c1ccc(C(C)C)cc1` returned a log10 Koc (L/kg) of 2.17.
For `N#CCC(N)=O`, the melting point was 122 °C.
In turn, `O=[N+]([O-])c1ccccc1CCO` had a boiling point of 267 °C and a melting point of 2 °C.
On to `C=CCSSSC`, for which the log10 vapour pressure (mmHg) was -1.3.
On to `O=[N+]([O-])Nc1ccccc1`, for which the melting point is 47.3 °C.
In the case of `Cc1ccc2cc3c(ccc4ccccc43)c3c2c1CC3`, the log10 Koc (L/kg) amounted to 6.1, the log10 vapour pressure (mmHg) is -7.37, the melting point turned out to be 180 °C and the ready biodegradability entry is reported as “not readily biodegradable”.
As for `O=C(O)c1cc(Br)cc(Br)c1O`, the melting point is 228 °C.
As for `CNC(=O)O/N=C/C(C)(C)S(C)(=O)=O`, the log10 Koc (L/kg) was found to be 0.42, the log10 vapour pressure (mmHg) is -4.05 and the melting point was determined as 141 °C.
Consider `O=[N+]([O-])c1ccc(F)cc1`, for which the boiling point was 205 °C and the melting point stood at 21 °C.
Molecule `Nc1ccccc1I` showed a melting point of 56.5 °C.
Same read-out and setting: as for `CCC(=O)O[C@H]([C@H](C)[C@H]1O[C@@]2(CC[C@@](C)([C@H]3CC[C@@](C)(C4O[C@@H]([C@H]5O[C@@](O)(CO)[C@H](C)C[C@@H]5C)C[C@@H]4C)O3)O2)C[C@H](O)[C@H]1C)[C@@H](C)C(=O)O` (stereo partly specified), the figure is 152 °C.
`CC(C)Cc1ccc(N)cc1` displayed a boiling point of 238 °C.
`FCCCCBr` showed a boiling point of 135 °C.
Molecule `C1COCOC1` yielded a boiling point of 106 °C and a melting point of -45 °C.
For the molecule `CC1(C)[C@H]2CC[C@]1(C)C(=O)[C@H]2O`, the melting point was found to be 206 °C.
Still for that read-out and setting: as for `CCCCCCCCCCCCOC(=O)c1cc(O)c(O)c(O)c1`, the figure is 96.5 °C.
With `CCCCCCCCCOC(C)=O`, the boiling point stood at 210 °C and the melting point was -26 °C.
As for `CC1C=CCC2C(=O)OC(=O)C12` (stereo unspecified), the ready biodegradability entry is given as “not readily biodegradable”.
Take `COc1ccc(C(=O)Cc2c(CCN(C)C)cc3c(c2OC)OCO3)c(C(=O)O)c1OC`: the melting point amounted to 138 °C.
`Clc1cccc(Cl)c1Br` had a boiling point of 242 °C and a melting point of 65 °C.
`C=COCCCC` displayed a boiling point of 94 °C, a log10 vapour pressure (mmHg) of 1.69 and a melting point of -92 °C.
For `CSc1ccc(C(=O)O)cc1`, the melting point turned out to be 194 °C.
With `C=CCCCCCCCCC`, the boiling point worked out at 193 °C, the log10 vapour pressure (mmHg) is -0.307 and the melting point was -49.2 °C.
With `CCOC(=O)CCCOc1ccc(Cl)cc1C`, the log10 vapour pressure (mmHg) was -5.84 and the melting point was -1 °C.
In the case of `CCC(CC)OC(C)=O`, the boiling point was 133 °C.
`O=C(O)[C@H](O)[C@@H](O)C(=O)O` (racemic) registered a melting point of 174 °C.
The molecule `CC(=O)c1c(O)c(C)c(O)c(Cc2c(O)c3c(c(C(=O)/C=C/c4ccccc4)c2O)OC(C)(C)C=C3)c1O` yielded a melting point of 212 °C.
As for `CSc1ccc2c(c1)N(CCC1CCCCN1C)c1ccccc1S2` (stereo unspecified), the melting point amounted to 73 °C.
Consider `NC(=O)CC[C@H](N)C(=O)O`, for which the ready biodegradability result is recorded as “readily biodegradable”.
In the case of `O=C(O)CCc1ccccc1`, the boiling point turned out to be 280 °C, the log10 vapour pressure (mmHg) is -2.57 and the melting point was determined as 107 °C.
The molecule `c1ccncc1` had a boiling point of 115 °C, a log10 Henry constant (atm·m³/mol) of -4.96, a log10 Koc (L/kg) of 1.6 and a log10 vapour pressure (mmHg) of 1.32. Besides, the melting point was -41.6 °C and the ready biodegradability entry is reported as “readily biodegradable”.
`BrCI` gave a boiling point of 140 °C.
Same read-out and setting: as for `CCCC(CC)CCC`, the figure is 141 °C.
The molecule `Clc1ccc2c(Cl)cc(Cl)c(Cl)c2c1` displayed a log10 Koa of 8.13 and a log10 vapour pressure (mmHg) of -5.07.
`C=CCc1cc(OC)c2c(c1)OCO2` displayed a boiling point of 276 °C.
Molecule `C1CCC(CCCC2CCCC2)CC1` had a boiling point of 270 °C.
Turning to `C[C@H]1CC[C@@H]2C[C@H]1C2(C)C`, the melting point was -53 °C.
Turning to `ClC(Cl)C(Cl)C(Cl)Cl`, the boiling point worked out at 199 °C, the log10 vapour pressure (mmHg) is -0.0278, the melting point was -10 °C and the ready biodegradability entry is recorded as “not readily biodegradable”.
As to `CC/C=C\CC1=C(C)CCC1=O`, the boiling point came out at 258 °C.
In the case of `OCCCCCCCCCCCl`, the melting point was 12.5 °C.
For `CC(C)(C)CCC(C)(C)C`, the boiling point came to 137 °C, the log10 vapour pressure (mmHg) was 0.942 and the melting point was -12.6 °C.
Turning to `CC(C)(C)C(=O)CC#N`, the melting point was determined as 71 °C.
Take `CCCCCCCCCCCCCCCCC1CCCCC1`: the boiling point was 385 °C and the melting point was determined as 33.6 °C.
With `CC=NNc1ccccc1`, the melting point was found to be 99.5 °C.
Still for that read-out and setting: with `CCCCCCCCCCCCCCCCCC(C)=O` the figure was 57 °C.
Take `C=C(C)c1cccc(C(=C)C)c1`: the boiling point was 231 °C.
Molecule `CC(C)CCON=O` yielded a boiling point of 99.2 °C.
With `CO[C@H](C(=O)c1ccccc1)c1ccccc1`, the melting point is 49.5 °C.
Take `O=Cc1cccc(F)c1`: the boiling point came out at 173 °C.
The molecule `O=C1C=Cc2cccc3cccc1c23` came in with a log10 vapour pressure (mmHg) of -5.17 and a melting point of 154 °C.
`O=CC12CC=CCC1C1CC=CCC1O2` (stereo unspecified) displayed a boiling point of 307 °C and a melting point of -80 °C.
